From patent US5817692A, “Endoperoxides useful as antiparasitic agents” (priority 1996, dated 1998)
Read-outs that look alike come from different tables or passages of the source.

Key:
[1] = system: L929 cells; assay: cytotoxicity to L929 cells, MTT assay (viability and replication); type: cell-based; set-up: Toxicity, Mean: unit not given here; details: L929 cells; for Toxicity, Mean: MTT; for inhibition at 0.1 µM / inhibition at 1 µM / inhibition at 10 µM / inhibition at 50 µM: Mus musculus, read-out: Toxicity, % of control (inhibition)
Experimental: Toxoplasma gondii is the causative agent of cerebral toxoplasmic encephalitis, an AIDS-related opportunistic infection. The biological activity of the endoperoxide JHU 2886 of the present invention was measured against Toxoplasma gondii cultured in L929 cells.
More specifically, the cytotoxicity of synthetic organic endoperoxide JHU 2886 was tested in L929 cells by measuring the viability and replication of exposed cells. The cytotoxicity of the compound to the cultured cells was measured using the MTT assay (Promega kit), according to the procedure of Carmichael et al. (18). MTT is an abbreviation for [3-(4,5-dimethylthiazol-2-yl)-2,5-dephenyltetrazolium bromide].
This compound is referred to as JHU 2886 in Table 1. In this experiment atovaquone and artemisinin were used as positive controls. Atovaquone is a broad-spectrum anti-infective drug having antimalarial and antitoxoplasmosis activity (19).
^1 The cytotoxicity of each compound for the cultured cells was
measured using the MTT assay (Promega kit) and inhibition of the […]

[2] = system: Toxoplasma gondii; assay: inhibition of intracellular replication of T. gondii in infected L929 cells, uracil incorporation assay; type: cell-based; set-up: Activity, Mean: unit not given here; details: for Activity, Mean: uracil incorporation; for inhibition at 0.1 µM / inhibition at 1 µM / inhibition at 10 µM / inhibition at 50 µM: Toxoplasma gondii, L929, read-out: Activity, % of control (inhibition)
Experimental: Toxoplasma gondii is the causative agent of cerebral toxoplasmic encephalitis, an AIDS-related opportunistic infection. The biological activity of the endoperoxide JHU 2886 of the present invention was measured against Toxoplasma gondii cultured in L929 cells. The inhibitory activity of the synthetic organic endoperoxide was tested by measuring the intracellular replication of T. gondii in infected L929 cells. The inhibition of the intracellular replication of T. gondii was determined using the uracil incorporation assay (20). […] This compound is referred to as JHU 2886 in Table 1. In this experiment atovaquone and artemisinin were used as positive controls. Atovaquone is a broad-spectrum anti-infective drug having antimalarial and antitoxoplasmosis activity (19). | measured using the MTT assay (Promega kit) and inhibition of the | intracellular replication of T. gondii was determined using the uracil | incorporation assay.

## O=C1C(O)=C([C@H]2CC[C@H](c3ccc(Cl)cc3)CC2)C(=O)c2ccccc21 [Atovaquone]
[1]; 24 hours, dose 0.1 μM
  Toxicity, Score: 1 (≤20%)
  Toxicity, Mean: 0.095
  inhibition at 0.1 µM: 15.6%
[1]; 24 hours, dose 1.0 μM
  Toxicity, Score: 1 (≤20%)
  Toxicity, Mean: 0.093
  inhibition at 1 µM: 17.4%
[1]; 24 hours, dose 10.0 μM
  Toxicity, Score: 1 (≤20%)
  Toxicity, Mean: 0.092
  inhibition at 10 µM: 18.3%
[1]; 24 hours, dose 50.0 μM
  Toxicity, Score: 2 (>20%-≤40%)
  Toxicity, Mean: 0.089
  inhibition at 50 µM: 21.2%
[1]; 48 hours, dose 0.1 μM
  Toxicity, Score: 0
  Toxicity, Mean: 0.214
  inhibition at 0.1 µM: 0%
[1]; 48 hours, dose 1.0 μM
  Toxicity, Score: 1 (≤20%)
  Toxicity, Mean: 0.211
  inhibition at 1 µM: 1.09%
[1]; 48 hours, dose 10.0 μM
  Toxicity, Score: 1 (≤20%)
  Toxicity, Mean: 0.204
  inhibition at 10 µM: 4.53%
[1]; 48 hours, dose 50.0 μM
  Toxicity, Score: 3 (>40%-≤70%)
  Toxicity, Mean: 0.106
  inhibition at 50 µM: 50.2%
[1]; 72 hours, dose 0.1 μM
  Toxicity, Score: 0
  Toxicity, Mean: 0.473
  inhibition at 0.1 µM: 0%
[1]; 72 hours, dose 1.0 μM
  Toxicity, Score: 0
  Toxicity, Mean: 0.464
  inhibition at 1 µM: 0%
[1]; 72 hours, dose 10.0 μM
  Toxicity, Score: 0
  Toxicity, Mean: 0.456
  inhibition at 10 µM: 0%
[1]; 72 hours, dose 50.0 μM
  Toxicity, Score: 3 (>40%-≤70%)
  Toxicity, Mean: 0.161
  inhibition at 50 µM: 63.2%
[2]; 1 μM, T. gondii activity / L929 toxicity
  therapeutic index (ratio of activity to toxicity), quotient: 5.6
[2]; 24 hours, dose 0.1 μM
  Activity, Score: 4 (>70%-≤90%)
  Activity, Mean: 3096
  inhibition at 0.1 µM: 78.4%
[2]; 24 hours, dose 1.0 μM
  Activity, Score: 5 (>90%)
  Activity, Mean: 693
  inhibition at 1 µM: 95.2%
[2]; 24 hours, dose 10.0 μM
  Activity, Score: 5 (>90%)
  Activity, Mean: 612
  inhibition at 10 µM: 95.7%
[2]; 24 hours, dose 50.0 μM
  Activity, Score: 5 (>90%)
  Activity, Mean: 1042
  inhibition at 50 µM: 92.7%
[2]; 48 hours, dose 0.1 μM
  Activity, Score: 3 (>40%-≤70%)
  Activity, Mean: 6865
  inhibition at 0.1 µM: 60.1%
[2]; 48 hours, dose 1.0 μM
  Activity, Score: 5 (>90%)
  Activity, Mean: 729
  inhibition at 1 µM: 95.8%
[2]; 48 hours, dose 10.0 μM
  Activity, Score: 5 (>90%)
  Activity, Mean: 399
  inhibition at 10 µM: 97.7%
[2]; 48 hours, dose 50.0 μM
  Activity, Score: 5 (>90%)
  Activity, Mean: 236
  inhibition at 50 µM: 98.6%
[2]; 72 hours, dose 0.1 μM
  Activity, Score: 3 (>40%-≤70%)
  Activity, Mean: 2940
[2]; 72 hours, dose 1.0 μM
  Activity, Score: 4 (>70%-≤90%)
  Activity, Mean: 1272
[2]; 72 hours, dose 10.0 μM
  Activity, Score: 5 (>90%)
  Activity, Mean: 446
  inhibition at 10 µM: 93.8%
[2]; 72 hours, dose 50.0 μM
  Activity, Score: 5 (>90%)
  Activity, Mean: 230
  inhibition at 50 µM: 96.8%
